Several values for one entry are separate records, joined by “and”; a condition that tells them apart may be missing. Equal entries are not always repeated.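 How tested: cells in 96-well plates exposed to compound for 48 hours at five concentrations. GI50 marks 50% less growth. TGI marks complete inhibition of growth.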
What was measured:
Test in all cases: growth of human tumour cells (NCI), 48 h
PC-3 prostate = tested on: PC-3 prostate
SK-MEL-5 melanoma = tested on: SK-MEL-5 melanoma
SNB-19 CNS = tested on: SNB-19 CNS
DLD-1 colon = tested on: DLD-1 colon
T-47D breast = tested on: T-47D breast
KM12 colon = tested on: KM12 colon
DMS 273 small cell lung = tested on: DMS 273 small cell lung
TK-10 renal = tested on: TK-10 renal
RXF 393 renal = tested on: RXF 393 renal
HL-60(TB) leukemia = tested on: HL-60(TB) leukemia

Structure (SMILES)	TGI (PC-3 prostate)	TGI (SK-MEL-5 melanoma)	TGI (SNB-19 CNS)	TGI (DLD-1 colon)	TGI (T-47D breast)	TGI (KM12 colon)	GI50 (DMS 273 small cell lung)	TGI (DMS 273 small cell lung)	GI50 (TK-10 renal)	TGI (TK-10 renal)	TGI (RXF 393 renal)	TGI (HL-60(TB) leukemia)	GI50 (PC-3 prostate) [µM]	GI50 (SK-MEL-5 melanoma)	GI50 (SNB-19 CNS) [µM]	GI50 (T-47D breast) [µM]	GI50 (KM12 colon)	GI50 (RXF 393 renal) [µM]	GI50 (HL-60(TB) leukemia) [µM]
Cc1ccc(S(=O)(=O)SC/C=C\CSS(=O)(=O)c2ccc(C)cc2)cc1	> 100 µM	> 100 µM	> 89.3 µM and 77.7 µM	> 100 µM and 47.7 µM	> 100 µM	> 100 µM and 30.4 µM	3.92 µM and 18.3 µM	> 43.7 µM and 35.3 µM	50 µM and 20.4 µM	> 100 µM and 45.5 µM	77.1 µM and 36.6 µM	–	–	–	–	–	–	–	–
COc1ccc2nccc(C3=CCC4CCN(C(=O)c5ccccc5)C3C4)c2c1 (stereo unspecified)	–	> 100 µM	> 100 µM	> 100 µM	–	> 100 µM	–	> 100 µM	–	> 100 µM	> 100 µM	> 100 µM	–	–	–	–	–	–	–
O=c1ncccn1[C@@H]1O[C@H](CO)[C@H](O)C1O (stereo partly specified)	–	> 100 µM	> 100 µM	> 100 µM	–	> 100 µM	–	> 100 µM	–	> 100 µM	> 100 µM	> 100 µM	–	–	–	–	–	–	–
C=C(c1ccccc1)C1(O)CCCCC1N (stereo unspecified)	–	> 100 µM	> 100 µM	> 100 µM	–	> 100 µM	–	> 100 µM	–	> 100 µM	> 100 µM	43.5 µM	–	–	–	–	–	–	–
CN(C(=O)/C=C/c1ccccc1)C1C2CN3CCC(O2)C13 (stereo unspecified)	–	> 100 µM	> 100 µM	> 100 µM	–	> 100 µM	–	> 100 µM	–	> 100 µM	> 100 µM	> 100 µM	–	–	–	–	–	–	–
CC(=O)OCc1c2ccccc2c(C)c2c1cc(F)c1ccccc12	–	69.6 µM	82.4 µM	64.3 µM	–	> 100 µM	–	26.4 µM	–	> 100 µM	57.9 µM	67.8 µM	–	–	–	–	–	–	–
CC1CC(C)CC(C)C(O)/C(C#N)=C/C=C/CC(C2CCCC2C(=O)O)OC(=O)CC(O)C(C)C1 (stereo unspecified)	0.205 µM and 0.208 µM	0.122 µM and 0.0932 µM	0.109 µM and 0.0359 µM	0.0819 µM	0.049 µM and < 0.0166 µM	0.216 µM and 0.227 µM	–	0.11 µM	–	0.089 µM and 0.432 µM	0.0304 µM and 0.0273 µM	0.0499 µM and 0.161 µM	0.0434	0.0282 µM and 0.0232 µM	0.0232	0.00595	0.0473 µM and < 0.0158 µM	0.00363	0.0166
O=c1cc(-c2cccs2)[nH]c2cc3c(cc12)OCO3	–	> 31.9 µM	> 100 µM	> 100 µM	–	> 100 µM	–	> 100 µM	–	> 100 µM	8.38 µM	40.1 µM	–	–	–	–	–	–	–
O=C(/C=C/c1ccccc1)Oc1cccc2cccnc12	–	24 µM	> 75.2 µM	31.4 µM	–	32.1 µM	–	45.6 µM	–	> 100 µM	> 85.4 µM	> 28.1 µM	–	–	–	–	–	–	–
O=C(O)CCNS(=O)(=O)c1ccc(NC(=O)c2ccccc2)cc1	–	> 100 µM	> 100 µM	> 100 µM	–	> 100 µM	–	> 100 µM	–	> 100 µM	> 100 µM	> 100 µM	–	–	–	–	–	–	–
Nc1ncnc2c1ncn2C1OC(CSCC(F)(F)F)C(O)C1O (stereo unspecified)	–	> 100 µM	> 100 µM	> 100 µM	–	> 100 µM	–	> 100 µM	–	> 100 µM	> 100 µM	> 100 µM	–	–	–	–	–	–	–
CN1N=CSC12C(=O)N(c1ccccc1)C(=O)N2c1ccccc1 (stereo unspecified)	–	> 100 µM	> 100 µM	> 100 µM	–	> 100 µM	–	> 100 µM	–	> 100 µM	> 100 µM	> 100 µM	–	–	–	–	–	–	–
COC(=O)/C(=N\NC(C)(C)C)C(C(=O)OC)C(=O)C(=O)Nc1cc(Cl)ccc1Cl (stereo unspecified)	–	> 100 µM	> 100 µM	> 100 µM	–	> 100 µM	–	> 100 µM	–	> 100 µM	> 100 µM	> 100 µM	–	–	–	–	–	–	–
